Test [1] relates to RSV-infected cells, antiviral CPE inhibition. Nature of the test: anti-RSV activity in infected cells – counter-screen for VEEV inhibitor project, dose response (AID 602470). For orientation: Counterscreens check selectivity or assay interference.
Test in test [2]: as above
The following applies: RSV-infected cells, antiviral CPE inhibition; at 12.5 µM (top of the series).

A word on the IC50: it is the point on the concentration scale where inhibition reaches its midpoint. Broadly, the inhibition is the percentage by which the read-out fell short of the control.

The source made the active and inactive calls. The rule behind the calls is not given here.

Consider `CN(C(=O)Cc1cccs1)c1nc2c(s1)CCCC2`, for which the IC50 in test [1] was 680 nM.

In the case of `CN1CCN(Cc2nc3ccc([N+](=O)[O-])cc3c(=O)n2-c2ccccc2F)CC1`, the inhibition in test [2] was 31.6% (inactive).

Take `CCN1CCN(Cc2nc3ccc([N+](=O)[O-])cc3c(=O)n2-c2ccccc2F)CC1`: in test [2], the inhibition is 38.2% (inactive).

The record behind these values is PubChem BioAssay AID602470 (Southern Research Specialized Biocontainment Screening …, 2012).
